What was measured:
HepG2 = experiment: Cytotoxicity activity against human HepG2 cells by MTT assay; assay type: functional, cell-based
[1] = Inhibition of porcine pancreatic lipase type 2 using p-nitrophenyl laurate as substrate after 2 hrs by UV spectrophotometric analysis; parameters: species or system Sus scrofa
HeLa = experiment: Cytotoxicity against human HeLa cells by MTT assay; assay type: functional, cell-based
MCF7 = experiment: Cytotoxicity against human MCF7 cells by MTT assay; assay type: functional, cell-based
A549 = experiment: Cytotoxicity against human A549 cells by MTT assay; assay type: functional, cell-based
[2] = Cytotoxicity against human SKOV3 cells by MTT assay; assay type: functional, cell-based; conditions: SK-OV-3

With `CCOC(=O)N1C/C(=C\c2cn(Cc3ccccc3)c3ccccc23)C(=O)/C(=C/c2cn(Cc3ccccc3)c3ccccc23)C1` the IC50 (HepG2) was over 100 µM, the IC50 [1] was “Not Active” and the IC50 (HeLa) was over 100 µM. It also gave an IC50 (MCF7) of over 100 µM, an IC50 (A549) of over 100 µM and an IC50 [2] of over 100 µM.

With `CCOC(=O)N1C/C(=C\c2cn(Cc3ccccc3F)c3ccccc23)C(=O)/C(=C/c2cn(Cc3ccccc3F)c3ccccc23)C1` the IC50 (HepG2) was over 100 µM, the IC50 ([1]; read-out: IC50) was 56.4 µM and the IC50 (HeLa) was over 100 µM. It also gave an IC50 (MCF7) of over 100 µM, an IC50 (A549) of 29.1 µM and an IC50 [2] of 85.5 µM.

With `CCOC(=O)N1C/C(=C\c2cn(Cc3ccccc3Cl)c3ccccc23)C(=O)/C(=C/c2cn(Cc3ccccc3Cl)c3ccccc23)C1` the IC50 (HepG2) was over 100 µM, the IC50 [1] was “Not Active” and the IC50 (HeLa) was over 100 µM. For the same compound, the IC50 (MCF7) was over 100 µM, the IC50 (A549) was 2.75 µM and the IC50 [2] was 50.6 µM.

Work on `CCOC(=O)N1C/C(=C\c2cn(Cc3ccc([N+](=O)[O-])cc3)c3ccccc23)C(=O)/C(=C/c2cn(Cc3ccc([N+](=O)[O-])cc3)c3ccccc23)C1` yielded an IC50 (HepG2) of over 100 µM, an IC50 ([1]; read-out: IC50) of 30.9 µM and an IC50 (HeLa) of over 100 µM. For the same compound, the IC50 (MCF7) was over 100 µM, the IC50 (A549) was 16 µM and the IC50 [2] was over 100 µM.

In the case of `CCOC(=O)N1C/C(=C\c2cn(Cc3ccc(F)cc3)c3ccccc23)C(=O)/C(=C/c2cn(Cc3ccc(F)cc3)c3ccccc23)C1`, the IC50 (HepG2) is reported as over 100 µM, the IC50 [1] is reported as “Not Active” and the IC50 (HeLa) is reported as 48 µM. The IC50 (MCF7) was over 100 µM, the IC50 (A549) was over 100 µM and the IC50 [2] was over 100 µM.

With `CCOC(=O)N1C/C(=C\c2cn(Cc3ccccc3C#N)c3ccccc23)C(=O)/C(=C/c2cn(Cc3ccccc3C#N)c3ccccc23)C1` the IC50 (HepG2) was over 100 µM, the IC50 [1] was “Not Active” and the IC50 (HeLa) was over 100 µM. It also gave an IC50 (MCF7) of over 100 µM, an IC50 (A549) of over 100 µM and an IC50 [2] of over 100 µM.

For `CCOC(=O)N1C/C(=C\c2cn(Cc3ccc(Cl)cc3Cl)c3ccccc23)C(=O)/C(=C/c2cn(Cc3ccc(Cl)cc3Cl)c3ccccc23)C1`, the IC50 (HepG2) was over 100 µM, the IC50 ([1]; read-out: IC50) was 14.9 µM and the IC50 (HeLa) was over 100 µM. The IC50 (MCF7) was over 100 µM, the IC50 (A549) was over 100 µM and the IC50 [2] was over 100 µM.

With `CCOC(=O)N1C/C(=C\c2cn(Cc3ccc(Br)cc3)c3ccccc23)C(=O)/C(=C/c2cn(Cc3ccc(Br)cc3)c3ccccc23)C1` the IC50 (HepG2) was over 100 µM, the IC50 [1] was “Not Active” and the IC50 (HeLa) was over 100 µM. It also gave an IC50 (MCF7) of over 100 µM, an IC50 (A549) of over 100 µM and an IC50 [2] of over 100 µM.

In the case of `CCOC(=O)N1C/C(=C\c2cn(Cc3ccc(-c4ccccc4C#N)cc3)c3ccccc23)C(=O)/C(=C/c2cn(Cc3ccc(-c4ccccc4C#N)cc3)c3ccccc23)C1`, the IC50 (HepG2) is reported as over 100 µM, the IC50 [1] is reported as “Not Active” and the IC50 (HeLa) is reported as over 100 µM. The IC50 (MCF7) was over 100 µM, the IC50 (A549) was over 100 µM and the IC50 [2] was over 100 µM.

For `CCOC(=O)N1C/C(=C\c2cn(C)c3ccccc23)C(=O)/C(=C/c2cn(C)c3ccccc23)C1`, the IC50 (HepG2) was over 100 µM, the IC50 [1] was “Not Active” and the IC50 (HeLa) was over 100 µM. The IC50 (MCF7) was over 100 µM, the IC50 (A549) was 66.7 µM and the IC50 [2] was 55.1 µM.

For `CCOC(=O)N1C/C(=C\c2cn(Cc3cccc(Cl)c3)c3ccccc23)C(=O)/C(=C/c2cn(Cc3cccc(Cl)c3)c3ccccc23)C1`, the IC50 (HepG2) was 7.33 µM, the IC50 [1] was “Not Active” and the IC50 (HeLa) was over 100 µM. The IC50 (MCF7) was over 100 µM, the IC50 (A549) was 4.21 µM and the IC50 [2] was 18 µM.

`COc1cc(/C=C/C(=O)CC(=O)/C=C/c2ccc(O)c(OC)c2)ccc1O` [CURCUMIN] showed an IC50 (HepG2) of 4.43 µM, an IC50 (HeLa) of 51.9 µM and an IC50 (MCF7) of 46.2 µM. For the same compound, the IC50 (A549) was 23.5 µM and the IC50 [2] was 49.9 µM.

For `COc1cccc2c1C(=O)c1c(O)c3c(c(O)c1C2=O)C[C@@](O)(C(=O)CO)C[C@@H]3O[C@H]1C[C@H](N)[C@H](O)[C@H](C)O1` [DOXORUBICIN], the IC50 (HepG2) was 10.2 µM, the IC50 (HeLa) was 9.03 µM and the IC50 (A549) was 0.14 µM. For the same compound, the IC50 [2] was 16.4 µM.

In the case of `CCCCCCCCCCC[C@@H](C[C@@H]1OC(=O)[C@H]1CCCCCC)OC(=O)[C@H](CC(C)C)NC=O` [ORLISTAT], the IC50 ([1]; read-out: IC50) is reported as 62.2 µM.

Reference: ChEMBL document CHEMBL3769322, “Synthesis and evaluation of anticancer and antiobesity activity of 1-ethoxy carbonyl-3,5-bis (3'-indolyl methylene)-4-pyperidone analogs” (Bioorg Med Chem Lett, 2016)
